Test results: patent US20260345574A1, “POTENT AND SELECTIVE IRREVERSIBLE INHIBITORS OF IRAK1” (Dana-Farber Cancer Institute, Inc., priority 2022, published 2026)

Key:
[1] = molecular target: IRAK1 (Homo sapiens, UniProt P51617); test: Adapta Universal Kinase Assay (ThermoFisher) against IRAK1; format: biochemical; conditions: Histone H3 (1-20) peptide substrate, 60 minutes at room temperature
Description: To measure the IC50 values of the compounds herein against IRAK1, the Adapta Universal Kinase Assay (ThermoFisher) was used. Briefly, 100 nL of different concentrations of the compounds in 100% DMSO were added to each well of a 384-well plate (Corning Cat. #4512). 2.4 μL of 30 mM HEPES, 2.5 μL of 4× ATP solution (in water), and 5 μL of 2× IRAK1/Histone H3 (1-20) peptide mixture (prepared in 50 mM HEPES pH 7.5, 0.01% BRIJ-35, 10 mM MgCl2, 1 mM EGTA) were added to each well. The plate was shaken for 30 seconds and centrifuged for 1 minute at 1000×g. The plate was then incubated at room temperature for 60 minutes. 5 μL of Detection Mix was added to each well. The plate was shaken for 30 seconds and centrifuged for 1 minute at 1000×g. The plate was then incubated at room temperature for 60 minutes. The plate was subsequently read on a fluorescence plate reader, and the emissions ratio was calculated to determine the ratio of ATP to ADP. Emissions Ratio=AF647 Emission (665 nm)/Europium Emission (615 nm).

[2] = molecular target: T1, IRAK4 (Homo sapiens, UniProt Q9NWZ3); test: Z'-LYTE assay (ThermoFisher) against IRAK4; format: biochemical; conditions: Ser/Thr 07 substrate, 60 minutes at room temperature
T1 sequence (Q9NWZ3 1-460): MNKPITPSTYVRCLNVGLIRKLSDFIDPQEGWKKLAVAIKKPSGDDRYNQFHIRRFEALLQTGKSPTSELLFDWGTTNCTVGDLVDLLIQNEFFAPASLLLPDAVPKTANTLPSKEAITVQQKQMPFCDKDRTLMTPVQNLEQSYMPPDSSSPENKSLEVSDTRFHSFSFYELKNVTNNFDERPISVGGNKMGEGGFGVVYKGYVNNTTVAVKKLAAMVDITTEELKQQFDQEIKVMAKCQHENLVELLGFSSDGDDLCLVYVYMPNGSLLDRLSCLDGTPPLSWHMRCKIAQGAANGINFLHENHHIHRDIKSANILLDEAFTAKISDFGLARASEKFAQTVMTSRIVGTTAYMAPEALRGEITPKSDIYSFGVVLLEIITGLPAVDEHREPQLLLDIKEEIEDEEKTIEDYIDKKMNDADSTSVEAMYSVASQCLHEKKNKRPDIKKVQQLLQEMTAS
Description: To measure the IC50 values of compounds herein against IRAK4, a Z′-LYTE assay (ThermoFisher) was used. Briefly, 2.5 μL of different concentrations of the compounds in 1% DMSO were added to 2.4 μL kinase buffer (50 mM HEPES pH 7.5, 0.01% BRIJ-35, 10 mM MgCl2, 1 mM EGTA) in each well of a 384-well plate (Corning Cat. #3676). 5 μL of 2× IRAK4/Ser/Thr 07 mixture (prepared in 50 mM HEPES pH 7.5, 0.01% BRIJ-35, 10 mM MnCl2, 2 mM DTT, and 0.02% NaN3) and 2.5 μL of 4× ATP solution (4× ATP, 50 mM HEPES, pH 7.5, 0.01% BRIJ-35, 10 mM MgCl2, 1 mM EGTA) were added to each well. The plate was shaken for 30 seconds, and then incubated at room temperature for 60 minutes. 5 μL of a 1:100000 dilution of Development Reagent A was added to each well. The plate was shaken for 30 seconds and incubated for 60 minutes at room temperature. The plate was subsequently read on a fluorescence plate reader, and the emissions ratio was calculated to determine the ratio of Ser/Thr 07 phosphorylated by the reaction. Emissions Ratio=Coumarin Emission (443 nm)/Flourescein Emission (520 nm).

IRAK1, sequence (P51617 whole entry): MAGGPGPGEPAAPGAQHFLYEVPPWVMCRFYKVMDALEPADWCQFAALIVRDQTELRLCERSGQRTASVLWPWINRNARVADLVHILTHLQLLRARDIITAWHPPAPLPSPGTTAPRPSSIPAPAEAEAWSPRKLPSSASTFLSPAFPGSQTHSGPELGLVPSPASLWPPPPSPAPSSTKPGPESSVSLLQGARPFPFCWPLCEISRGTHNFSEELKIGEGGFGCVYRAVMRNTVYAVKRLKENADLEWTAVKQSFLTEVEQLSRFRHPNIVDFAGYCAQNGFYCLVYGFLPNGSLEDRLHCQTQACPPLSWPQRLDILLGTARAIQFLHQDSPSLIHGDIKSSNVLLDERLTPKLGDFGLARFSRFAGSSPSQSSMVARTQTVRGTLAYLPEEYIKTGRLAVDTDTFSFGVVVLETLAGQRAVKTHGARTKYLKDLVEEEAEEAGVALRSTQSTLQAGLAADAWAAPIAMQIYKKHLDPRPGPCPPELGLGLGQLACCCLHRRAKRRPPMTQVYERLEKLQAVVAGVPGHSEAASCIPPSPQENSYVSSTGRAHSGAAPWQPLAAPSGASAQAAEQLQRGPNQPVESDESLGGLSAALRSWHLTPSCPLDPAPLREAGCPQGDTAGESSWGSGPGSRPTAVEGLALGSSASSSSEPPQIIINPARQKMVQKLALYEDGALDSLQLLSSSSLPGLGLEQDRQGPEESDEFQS

| Structure (SMILES) | IC50 [1] [nM] | IC50 [2] [nM] |
| --- | --- | --- |
| C=CC(=O)N1CCC[C@H](c2nc(-c3ccc(NC(=O)c4cccc(-c5ccn[nH]5)n4)nc3)no2)C1 [Compound 001, (S)-N-(5-(5-(1-acryloylpiperidin-3-yl)-1,2,4-oxadiazol-3-yl)pyridin-2-yl)-6-(1H-pyrazol-5-yl)picolinamide] | 19.8 | > 10000 |
| C=CC(=O)N1CC(c2nc(-c3ccc(NC(=O)c4cccc(-c5ccn[nH]5)n4)nc3)no2)CC(F)(F)C1 (stereo not drawn) [Compound 002, N-(5-(5-(1-acryloyl-5,5-difluoropiperidin-3-yl)-1,2,4-oxadiazol-3-yl)pyridin-2-yl)-6-(1H-pyrazol-5-yl)picolinamide] | 6.42 | > 10000 |
| C=CC(=O)N1CCC[C@H](c2nnc(-c3ccc(NC(=O)c4cccc(-c5ccn[nH]5)n4)nc3)o2)C1 [Compound 005, (S)-N-(5-(5-(1-acryloylpiperidin-3-yl)-1,3,4-oxadiazol-2-yl)pyridin-2-yl)-6-(1H-pyrazol-5-yl)picolinamide] | 96.1 | 9340 |
| C=CC(=O)N1CCC[C@H](c2nc(-c3ccc(NC(=O)c4cccc(-c5[nH]ncc5C)n4)nc3)no2)C1 [Compound 006, (S)-N-(5-(5-(1-acryloylpiperidin-3-yl)-1,2,4-oxadiazol-3-yl)pyridin-2-yl)-6-(4-methyl-1H-pyrazol-5-yl)picolinamide] | 8.21 | > 10000 |
| C=CC(=O)N1CC(c2nc(-c3ccc(NC(=O)c4cccc(-c5[nH]ncc5C)n4)nc3)no2)CC(F)(F)C1 (stereo not drawn) [Compound 007, N-(5-(5-(1-acryloyl-5,5-difluoropiperidin-3-yl)-1,2,4-oxadiazol-3-yl)pyridin-2-yl)-6-(4-methyl-1H-pyrazol-5-yl)picolinamide] | 3.98 | > 10000 |
| C=CC(=O)N1CC(c2nc(-c3ccc(NC(=O)c4cccc(-c5[nH]ncc5Cl)n4)nc3)no2)CC(F)(F)C1 (stereo not drawn) [Compound 008, N-(5-(5-(1-acryloyl-5,5-difluoropiperidin-3-yl)-1,2,4-oxadiazol-3-yl)pyridin-2-yl)-6-(4-chloro-1H-pyrazol-5-yl)picolinamide] | 5.11 | > 10000 |
| C=CC(=O)N1CC(C(F)(F)F)C[C@H](c2nc(-c3ccc(NC(=O)c4cccc(-c5ccn[nH]5)n4)nc3)no2)C1 (stereo partly drawn) [Compound 009, N-(5-(5-((3S)-1-acryloyl-5-(trifluoromethyl)piperidin-3-yl)-1,2,4-oxadiazol-3-yl)pyridin-2-yl)-6-(1H-pyrazol-5-yl)picolinamide] | 3.98 | > 10000 |
| C=CC(=O)N1CC2CC1[C@@H](c1nc(-c3ccc(NC(=O)c4cccc(-c5[nH]ncc5C)n4)nc3)no1)C2 (stereo partly drawn) [Compound 010, N-(5-(5-((6S)-2-acryloyl-2-azabicyclo[2.2.1]heptan-6-yl)-1,2,4-oxadiazol-3-yl)pyridin-2-yl)-6-(4-methyl-1H-pyrazol-5-yl)picolinamide] | 5.11 | > 10000 |
| C=CC(=O)N1CCC[C@H](c2nc(-c3ccc(NC(=O)c4cccc(-c5ccnn5CC5(C(F)(F)F)CC5)n4)nc3)no2)C1 [Compound 017, (S)-N-(5-(5-(1-acryloylpiperidin-3-yl)-1,2,4-oxadiazol-3-yl)pyridin-2-yl)-6-(1-((1-(trifluoromethyl)cyclopropyl)methyl)-1H-pyrazol-5-yl)picolinamide] | > 10000 | > 10000 |

Second part, the compound after the results:

| IC50 [1] [nM] | IC50 [2] [nM] | Structure (SMILES) |
| --- | --- | --- |
| 3.95 | 125 | C=CC(=O)N1CCC[C@H](C(=O)Nc2ccc(-c3nnc(-c4cccc(-c5ccn[nH]5)n4)[nH]3)nc2)C1 [Compound 018] |
| 5 | 331 | C=CC(=O)N1CCC[C@H](C(=O)Nc2ccc(-c3nnc(-c4cccc(-c5ccn[nH]5)n4)o3)nc2)C1 [Compound 019] |
|  | > 10000 | C=CC(=O)N1CC2(CC(c3nc(-c4ccc(NC(=O)c5cccc(-c6ccn[nH]6)n5)cc4)no3)C2)C1 [Compound 077] |
|  | 4970 | C=CC(=O)N1CC2(CC(c3nc(-c4ccc(NC(=O)c5cccc(-c6ccn[nH]6)n5)cc4)no3)C2)C1 [Compound 091] |
